Measured values as given in patent US6828458B2, “Topical antiandrogen for hair loss and other hyperandrogenic conditions” (Biophysica, Inc., priority 2000, dated 2004).
Where two headings read alike, the source gives them in different places. One block for each compound: values may come before it.

How the values were obtained:
mice [1] = assay: Systemic toxicity by intraperitoneal injections in mice; type: in vivo, mouse
Description: (§1) The systemic toxicity of BP-766 was orientationally evaluated by multiple intraperitoneal (i.p.) injections in mice. […] […] The murine maximum tolerated dose (MTD) was approximately 300 mg/kg.

Androgen Receptor = biological target: T1, Androgen Receptor (Homo sapiens, UniProt P10275, T878A); assay: Androgen receptor remaining in LNCaP cells after incubation, Western Blot of lysate; type: cell-based; conditions: for Percent Androgen Receptor Remaining in LNCaP Cells: 48 hrs. incubation
T1 construct: endogenous in cells; host or cells: LNCaP cells
T1 sequence (P10275 1-920 T878A): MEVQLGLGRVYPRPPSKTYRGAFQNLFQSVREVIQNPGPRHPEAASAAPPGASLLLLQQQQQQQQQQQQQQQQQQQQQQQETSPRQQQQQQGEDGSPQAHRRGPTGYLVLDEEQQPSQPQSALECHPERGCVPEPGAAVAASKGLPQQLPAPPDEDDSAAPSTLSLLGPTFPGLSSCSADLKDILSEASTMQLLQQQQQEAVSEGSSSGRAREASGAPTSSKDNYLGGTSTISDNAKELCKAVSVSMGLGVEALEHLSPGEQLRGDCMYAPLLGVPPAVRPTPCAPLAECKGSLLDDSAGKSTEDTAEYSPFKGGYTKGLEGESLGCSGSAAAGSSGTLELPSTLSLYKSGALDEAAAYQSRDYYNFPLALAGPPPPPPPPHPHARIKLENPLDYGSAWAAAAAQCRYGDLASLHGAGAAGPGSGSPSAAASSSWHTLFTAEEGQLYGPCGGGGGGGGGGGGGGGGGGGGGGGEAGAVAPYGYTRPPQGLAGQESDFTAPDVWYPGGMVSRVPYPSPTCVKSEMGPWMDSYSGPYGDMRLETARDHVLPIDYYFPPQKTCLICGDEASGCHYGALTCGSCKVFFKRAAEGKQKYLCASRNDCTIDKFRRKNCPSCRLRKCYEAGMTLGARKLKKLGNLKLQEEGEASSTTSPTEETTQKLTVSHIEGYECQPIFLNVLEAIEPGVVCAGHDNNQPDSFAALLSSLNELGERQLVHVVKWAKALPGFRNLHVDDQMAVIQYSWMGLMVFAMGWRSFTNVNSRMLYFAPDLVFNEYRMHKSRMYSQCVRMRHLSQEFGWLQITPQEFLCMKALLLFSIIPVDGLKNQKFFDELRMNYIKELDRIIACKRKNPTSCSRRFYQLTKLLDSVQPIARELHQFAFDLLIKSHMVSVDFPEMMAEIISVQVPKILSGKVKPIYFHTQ
Description: The interaction of BP-766 with androgenic receptors was studied by incubation with LNCaP cells, (known to contain human AR), subsequent cell lysis and the Western Blot assay to identify and quantify the androgenic receptors protein.

[2] = Cutaneous absorption in rabbits, serum analyzed by HPLC; type: in vivo, rabbit; conditions: BP-766 topical twice daily (0.6 mg/kg-day) for ten days, limit of detection approximately 10 ng/ml
Description: (§2) BP-766 was applied topically twice daily to simulate the intended human application (0.6 mg/kg-day), on the two 10 cm^2 separate areas of a closely shaved skin of four rabbits, for ten days. One ml blood samples were collected at 2, 5 and 21 hours after the first application, and once every other day thereafter. Serum was analyzed by HPLC. Using spiked and blank serum samples and a linearity determination, the limits of detection of BP-766 and/or BP-34 were established as approximately 10 ng/ml. […] The cutaneous absorption in rabbits is known to be about 5 to 6 times greater than in humans (Marzulic, F. N. and Maibach, H.: Dermatotoxicology, 5th Edition, Taylor & Frasier, Washington, D.C. 1966) so that even with the detection limits of this method, only trace amounts could ever be expected in humans.

[3] = Systemic toxicity by intraperitoneal injections in mice; type: in vivo, mouse; conditions: mouse, in vivo, ip, i.p. injections, read-out: murine maximum tolerated dose (MTD)
Description: as §1

rabbits [4] = assay: Skin irritation potential according to ISO 10 993-10; type: in vivo, rabbit
Description: BP-766 was also evaluated by an independent laboratory according to ISO 10 993-10, in rabbits. A single application of 0.5 ml as a 1% (m/v) solution in anhydrous isopropyl alcohol and/or the vehicle only was employed. The application site was covered in one group, and not covered in an other group, each consisting of six rabbits. […] Non-irritability was defined by an arbitrary index, ranging from 0 to 0.4.

[5] = Acute oral toxicity in NMRI mice; conditions: mouse, in vivo, probit analysis
Description: (§3) Acute oral toxicity of BP-766 was determined in NMRI mice and Wistar rats.

rabbits [6] = assay: Cutaneous irritation observed daily in rabbits during ten-day topical application; type: in vivo, rabbit; conditions: topical twice daily for ten days
Description: as §2

[7] = Biodegradation in human serum, HPLC; type: in vitro ADME; conditions: 38° C., 0.5 mg/ml
Description: BP-766 was tested for degradation by incubation with human serum at 38° C., at a concentration of 0.5 mg/ml. It would be desirable for safety that should BP-766 for any unexpected reason be resorbed from the skin, it should decompose into rapidly excretable non-toxic components. The only products of biodegradation of BP-766 are the precursor BP-34, and trifluoroacetic acid, which both have good biological tolerance. […] (Permadi, H; Lundgren, B; Andersson K; Sundberg C; DePierre J W. Effects of perfluoro fatty acids on peroxisome proliferation and mitochondrialsize in mouse liver: dose and time factors and effect of chain length. Xenobiotica, (1993) Vol 23, No. 7, pp. 761-70). Orientational toxicity of BP-34 is described further below.

[8] = system: volunteers with incipient androgenic effluvium and/or alopecia; assay: Topical treatment of volunteers with androgenic effluvium and/or alopecia; type: in vivo, human
Wistar rats = assay: Acute oral toxicity in Wistar rats; type: in vivo, rat; conditions: male and female
Description: as §3

[9] = Accelerated shelf stability of formulated solutions, HPLC; type: physicochemical; conditions: for BP-766 remaining: anhydrous isopropanol
Text: (Table 3). […] (Connors, Kenneth A; Amidon, Gordon L.; Stella, Valentino J. Chemical Stability of Pharmaceuticals—A Handbook for Pharmacists. Second Edition, 1986, John Wiley & Sons)

mice [10] = conditions: cited from earlier work

Compound: 4-nitro-3-trifluoromethyl-N-(2-hydroxy-2-methyl-3-amino [BP-34]
murine maximum tolerated dose (MTD) (mice [1]; i.p. injections): approximately 250 mg/kg
mortality (mice [1]; i.p. injections of 100-300 mg/kg): no mortalities
morbidity / mortality (mice [1]; i.p., 300 mg/kg): Morbidity, but not mortality, was observed
effect on the androgenic receptors (in words) (Androgen Receptor): had no effect on the androgenic receptors
Percent Androgen Receptor Remaining in LNCaP Cells (Androgen Receptor; 3 μ Molar conc.): 97%
Percent Androgen Receptor Remaining in LNCaP Cells (Androgen Receptor; 10 μ Molar conc.): 98%
BP-766 and/or BP-34 found in serum [2]: No BP-766 or BP-34 was found in any of the samples

Compound: CC(O)(CNC(=O)C(F)(F)F)C(=O)Nc1ccc([N+](=O)[O-])c(C(F)(F)F)c1 (centres unmarked) [BP-766, 2-hydroxy-2-methyl-N-(4-nitro-3-(trifluoromethyl)phenyl)-3-(2,2,2-trifluoroacetylamino)propanamide]
LD50 (daily dose for seven days that resulted in 50% mortality) (mice [1]; i.p., daily for seven days): 450 mg/kg bw
MTD at 7 days [3]: ~300 mg/kg
skin irritation potential (rabbits [4]): no skin irritation potential was found
LD50 ([5]; female NMRI mice): 2230 mg/kg
LD50 ([5]; male NMRI mice): 2870 mg/kg
signs of cutaneous irritation (rabbits [6]): none was detected
% BP-766 remaining in human serum ([7]; 0 hours): 100%
% BP-766 remaining in human serum ([7]; 6 hours): 54.3%
% BP-766 remaining in human serum ([7]; 24 hours): 10.9%
% BP-766 remaining in human serum ([7]; 48 hours): Traces
dermal irritation ([8]; six volunteers, 2% solution in anhydrous isopropanol, 1 ml twice daily on the scalp, 8 weeks): no dermal irritation
effluvium of the frontal hairline ([8]; six volunteers, 2% solution, 1 ml twice daily, after 2 weeks): arrested the effluvium of the frontal hairline in all six volunteers
hair regrowth ([8]; two volunteers, after 4 months use): an evident regrowth was observed
LD50 (Wistar rats): greater than 2500 mg/kg body weight
% BP-766 ([9]; 60/40 EtOH/H2O, 55° C., 0 hours): 100%
% BP-766 ([9]; 60/40 EtOH/H2O, 55° C., 24 hours): 99.1%
% BP-766 ([9]; 60/40 EtOH/H2O, 55° C., 48 hours): 98.2%
% BP-766 ([9]; 60/40 EtOH/H2O, RT, 0 hours): 100%
% BP-766 ([9]; 60/40 EtOH/H2O, RT, 24 hours): 99.9%
% BP-766 ([9]; 60/40 EtOH/H2O, RT, 48 hours): 99.69%
% BP-766 ([9]; Isopropanol (3-5% water), 55° C., 0 hours): 100%
% BP-766 ([9]; Isopropanol (3-5% water), 55° C., 6 hours): 99.6%
% BP-766 ([9]; Isopropanol (3-5% water), 55° C., 24 hours): 99.1%
% BP-766 ([9]; Isopropanol (3-5% water), 55° C., 144 hours): 98.7%
BP-766 remaining ([9]; 0 weeks): 100%
BP-766 remaining ([9]; 1 week): 99.6%
BP-766 remaining ([9]; 2 weeks): 99.4%
BP-766 remaining ([9]; 3 weeks): 99.3%
BP-766 remaining ([9]; 4 weeks): 99.2%
BP-766 remaining ([9]; 5 weeks): 98.9%
BP-766 remaining ([9]; 6 weeks): 98.8%
BP-766 remaining ([9]; 7 weeks): 98.3%
BP-766 remaining ([9]; 8 weeks): 98.4%

Percent Androgen Receptor Remaining in LNCaP Cells (Androgen Receptor; 3 μ Molar conc.): 98%
Percent Androgen Receptor Remaining in LNCaP Cells (Androgen Receptor; 10 μ Molar conc.): 94%
Compound: CC(C)(O)C(=O)Nc1ccc([N+](=O)[O-])c(C(F)(F)F)c1 [Hydroxyflutamide, reference compound]
effect on the androgenic receptors (in words) (Androgen Receptor; any concentration, after 48 hrs.): did not a affect the androgenic receptors significantly

Compound: O=C(O)C(F)(F)F [trifluoroacetic acid]
toxicity when fed to mice (mice [10]): showed no toxicity
